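48-hour exposure; five concentrations; linearly interpolated endpoints. At the TGI there is no net growth.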
How the values were obtained:
Assay in all cases: NCI anticancer screen, dose series, 48 h
HOP-62 NSCLC = system: HOP-62 NSCLC
ACHN renal = system: ACHN renal
SN12C renal = system: SN12C renal
SR leukemia = system: SR leukemia
T-47D breast = system: T-47D breast
UO-31 renal = system: UO-31 renal
A498 renal = system: A498 renal
RXF 393 renal = system: RXF 393 renal
A549 NSCLC = system: A549 NSCLC
OVCAR-5 ovarian = system: OVCAR-5 ovarian
IGROV1 ovarian = system: IGROV1 ovarian
OVCAR-8 ovarian = system: OVCAR-8 ovarian
HCC-2998 colon = system: HCC-2998 colon
UACC-62 melanoma = system: UACC-62 melanoma
PC-3 prostate = system: PC-3 prostate
MCF7 breast = system: MCF7 breast
SNB-19 CNS = system: SNB-19 CNS
NCI-H23 lung = system: NCI-H23 lung
EKVX NSCLC = system: EKVX NSCLC
NCI-H226 lung = system: NCI-H226 lung
SK-MEL-2 melanoma = system: SK-MEL-2 melanoma
MDA-MB-435 = system: MDA-MB-435
MOLT-4 leukemia = system: MOLT-4 leukemia
BT-549 breast = system: BT-549 breast
HOP-92 NSCLC = system: HOP-92 NSCLC
CAKI-1 renal = system: CAKI-1 renal
KM12 colon = system: KM12 colon
OVCAR-4 ovarian = system: OVCAR-4 ovarian
UACC-257 melanoma = system: UACC-257 melanoma
HCT-116 colon = system: HCT-116 colon
TK-10 renal = system: TK-10 renal
RPMI-8226 leukemia = system: RPMI-8226 leukemia
SNB-75 CNS = system: SNB-75 CNS
HCT-15 colon = system: HCT-15 colon
NCI/ADR-RES ovarian = system: NCI/ADR-RES ovarian
SF-268 CNS = system: SF-268 CNS
OVCAR-3 ovarian = system: OVCAR-3 ovarian
MDA-N = system: MDA-N
M14 melanoma = system: M14 melanoma
NCI-H460 lung = system: NCI-H460 lung
HT29 colon = system: HT29 colon
COLO 205 colon = system: COLO 205 colon
K-562 leukemia = system: K-562 leukemia
SF-295 CNS = system: SF-295 CNS
MDA-MB-231 breast = system: MDA-MB-231 breast
786-0 renal = system: 786-0 renal
SK-MEL-28 melanoma = system: SK-MEL-28 melanoma
SF-539 CNS = system: SF-539 CNS
U251 CNS = system: U251 CNS
SW-620 colon = system: SW-620 colon
DU-145 prostate = system: DU-145 prostate
SK-OV-3 ovarian = system: SK-OV-3 ovarian
LOX IMVI melanoma = system: LOX IMVI melanoma
CCRF-CEM leukemia = system: CCRF-CEM leukemia
SK-MEL-5 melanoma = system: SK-MEL-5 melanoma
MALME-3M melanoma = system: MALME-3M melanoma
NCI-H522 lung = system: NCI-H522 lung
HL-60(TB) leukemia = system: HL-60(TB) leukemia

Measured: TGI

COc1ccc(/C=C2/SC(c3ccccc3)N(NC(=O)CCCCCCCCC(=O)NN3C(=O)/C(=C\c4ccc(OC)c(OC)c4)SC3c3ccccc3)C2=O)cc1OC (stereo not drawn)
60.5 µM: MOLT-4 leukemia
98.7 µM: UACC-62 melanoma
62 µM: K-562 leukemia
61.7 µM: IGROV1 ovarian
79.1 µM: SF-539 CNS
91.3 µM: 786-0 renal
98.3 µM: SR leukemia
72.6 µM: RPMI-8226 leukemia
94.8 µM: EKVX NSCLC
72.9 µM: SF-295 CNS
71.8 µM: ACHN renal
66.3 µM: HOP-92 NSCLC
76.2 µM: MDA-N
not listed: LOX IMVI melanoma | CCRF-CEM leukemia | SK-MEL-5 melanoma | MALME-3M melanoma | NCI-H522 lung | HL-60(TB) leukemia
> 100 µM: all other assays above

CC(C)Sc1nncc(/C(N)=N/O)n1
not listed: SK-MEL-2 melanoma | HL-60(TB) leukemia
> 100 µM: all other assays above

CCOC(=O)c1sc2nc(SC)nc(Nc3ccc4c(c3)OCO4)c2c1N
63.1 µM: SK-MEL-28 melanoma
31 µM: RXF 393 renal
77.5 µM: EKVX NSCLC
96.9 µM: A498 renal
69.4 µM: ACHN renal
71.6 µM: HOP-92 NSCLC
97.6 µM: MALME-3M melanoma
84.8 µM: SF-295 CNS
not listed: OVCAR-8 ovarian | SNB-75 CNS | SF-268 CNS | HT29 colon | SK-OV-3 ovarian
> 100 µM: all other assays above

COc1cc(/C=C2/SC(c3ccccc3)N(c3cc(Cl)ccc3Cl)C2=O)cc(OC)c1OC (stereo not drawn)
37.6 µM: MDA-N
61.1 µM: MDA-MB-435
90.8 µM: CAKI-1 renal
not listed: SF-268 CNS | SF-539 CNS
> 100 µM: all other assays above

Cc1cc(C)nc(NS(=O)(=O)c2ccc(NNc3c4ccccc4nc4c(C(=O)Nc5ccc(S(=O)(=O)N=C(N)N)cc5)cccc34)cc2)n1
85 µM: SK-MEL-28 melanoma
96.8 µM: OVCAR-3 ovarian | U251 CNS
76.1 µM: SR leukemia
61.5 µM: SK-MEL-2 melanoma
77.7 µM: HT29 colon
98 µM: CCRF-CEM leukemia
not listed: A498 renal | UACC-62 melanoma
> 100 µM: all other assays above

Reference: PubChem BioAssay (NCI)
